In US10710979B2, “EGFR kinase inhibitor and preparation method and use thereof” (ZHEJIANG BOSSAN PHARMACEUTICAL CO. LTD., priority 2015, dated 2020) one finds IC50 data, which are given here for 27 molecules.

Holding throughout (type): cell-based
Assay [1] concerns human epidermal cancer cell A431. As to the kind of experiment: Effect of compounds on proliferation of tumor cells (MTT), A431. To be noted: A-431, 72 hours. Here is the method: (§1) Human lung cancer cells H1975, H522, human hepatoma cell HepG2, human melanoma cell A375, human epidermal cancer cell A431, and human colon cancer cells COLO205 were cultivated. The cells were collected when they have grown to logarithmic growth phase, and centrifuged at 1000 rpm for 5 min, from which the supernatant was discarded, and the rest was suspended with appropriate amount of medium, and the concentration of cells was adjusted to 2.5-5.5×10^4/ml (once it was 3.0-5.5×10^4/ml). The cell suspension was inoculated into a 96-well cell culture plate with 100 μl per well, and placed in a cell incubator (37° C., 5% CO2) for 24 hours, and then 100 μl of the drug diluted in the cell culture medium was added to each well of the drug group. Three duplicate wells were set for each drug, and the negative control group was medium containing 0.5% DMSO. After being incubated for 72 hours in the incubator, 20 μl of MTT (5 mg/ml) was added to each well, which was placed under 37° C. for 3 hours. 150 μl of DMSO was added to each well and shaken at 37° C. for 5 mins, and absorbance (OD) was determined at 492 nm. The Prism Graphpad statistical software was used to calculate IC50 values.

Assay [2] deals with human melanoma cell A375. Nature of the assay: Effect of compounds on proliferation of tumor cells (MTT), A375. To be noted: A-375, 72 hours. Here is the method: as §1
In assay [3] the test system is human lung cancer cells H1975. Nature of the assay: Effect of compounds on proliferation of tumor cells (MTT), H1975. To be noted: Homo sapiens, NCI-H1975; H1975 cells, 72 hours, MTT. Here is the method:
as §1

Assay [4] has as its system human hepatoma cell HepG2. Nature of the assay: Effect of compounds on proliferation of tumor cells (MTT), HepG2. As to conditions: 72 hours. Here is the method:
as §1

In assay [5] the test system is human colon cancer cells COLO205. Nature of the assay: Effect of compounds on proliferation of tumor cells (MTT), COLO205. To be noted: COLO 205, 72 hours. Here is the method: as §1
In assay [6] the test system is human lung cancer cells H522. As to the kind of experiment: Effect of compounds on proliferation of tumor cells (MTT), H522. As to conditions: NCI-H522, 72 hours. Here is the method:
as §1

SMILES strings stand for the structures. Bounds are passed on as bounds.

Broadly, the IC50 is the concentration needed to halve the response being measured. Regarding `C=CC(=O)Nc1cccc(Nc2nc(Nc3ccc(N4CCNCC4)nc3OC)ncc2C(F)(F)F)c1` [ES-069], the IC50 was 5.26 µM in assay [1], 2.42 µM in assay [2], 0.224 µM in assay [3] and 15.8 µM in assay [4].
The matching figures for `C=CC(=O)Nc1cccc(Nc2nc(Nc3ccc(N4CCN(C(=O)OC(C)(C)C)CC4)nc3OC)ncc2C(F)(F)F)c1` [ES-070]: 1.75 µM, 4.95 µM, 0.111 µM and 7.22 µM.
For the molecule `C=CC(=O)Nc1cccc(Nc2nc(Nc3cnc(N4CCN(C(=O)OC(C)(C)C)CC4)cc3OC)ncc2C(F)(F)F)c1` [ES-073], the IC50 came out at 7.08 µM in assay [1], 15 µM in assay [2], 0.214 µM in assay [3] and 1.95 µM in assay [4].
The matching figures for `C=CC(=O)Nc1cccc(Nc2nc(Nc3cnc(N4CCN(C(C)=O)CC4)cc3OC)ncc2C(F)(F)F)c1` [ES-074]: 3.5 µM, 10.3 µM, 0.179 µM and 6.88 µM.
Take `C=CC(=O)Nc1cccc(Nc2nc(Nc3ccc(NC4CCN(C(C)=O)C4)nc3OC)ncc2C(F)(F)F)c1` (stereo not shown) [ES-123]: the IC50 in assay [1] was 4.62 µM; in assay [2] it was 8.94 µM; in assay [5] it was 4.62 µM; in assay [3] it was 0.15 µM; in assay [6], 2.69 µM; in assay [4], 9.2 µM.
Turning to `C=CC(=O)Nc1cccc(Nc2nc(Nc3ccc(NC4CCN(CCF)C4)nc3OC)ncc2C(F)(F)F)c1` (stereo not shown) [ES-124], the IC50 was 2.09 µM in assay [1]; 6.26 µM in assay [2]; 2.21 µM in assay [5]; 0.0557 µM in assay [3]; 1.25 µM in assay [6]; 3.73 µM in assay [4].
As to `C=CC(=O)Nc1cccc(Nc2nc(Nc3ccc(NC4CCN(C(=O)C5COC5)C4)nc3OC)ncc2C(F)(F)F)c1` (stereo not shown) [ES-125], the IC50 in assay [1] came out at 5.04 µM; in assay [2] it was 12.2 µM; in assay [5], 5.56 µM; in assay [3] it was 0.149 µM; in assay [6], 3.96 µM; in assay [4], 16.8 µM.
In the case of `C=CC(=O)Nc1cccc(Nc2nc(Nc3ccc(N4CCN(C(=O)C5CC5)CC4)nc3OC)ncc2C(F)(F)F)c1` [ES-130], the half-inhibitory concentration (IC50) in assay [1] came to 2.25 µM; in assay [2], 4.59 µM; in assay [5], 3.35 µM; in assay [3], 0.0356 µM; in assay [6], 1.77 µM; in assay [4] it was 0.794 µM.
As for `C=CC(=O)Nc1cccc(Nc2nc(Nc3ccc(N4CCN(C(=O)N(C)C)CC4)nc3OC)ncc2C(F)(F)F)c1` [ES-131], the IC50 in assay [1] came out at 3.82 µM; in assay [2], 4.04 µM; in assay [5], 5.33 µM; in assay [3], 0.0579 µM; in assay [6], 2.4 µM; in assay [4], 3.07 µM.
With `C=CC(=O)Nc1cccc(Nc2nc(Nc3ccc(N4CCN(S(=O)(=O)N(C)C)CC4)nc3OC)ncc2C(F)(F)F)c1` [ES-132], the IC50 turned out to be 2.62 µM in assay [1]; 4.42 µM in assay [2]; 3.78 µM in assay [5]; 0.23 µM in assay [3]; 2.9 µM in assay [6]; 4.14 µM in assay [4].
For the molecule `C=CC(=O)Nc1cccc(Nc2nc(Nc3ccc(N4CCN(S(=O)(=O)NC)CC4)nc3OC)ncc2C(F)(F)F)c1` [ES-133], the 50% inhibitory concentration (IC50) in assay [1] turned out to be 5.68 µM; in assay [2], 12.5 µM; in assay [5], 5.66 µM; in assay [3] it was 0.43 µM; in assay [6] it was 3.39 µM; in assay [4] it was 13.2 µM.
Consider `C=CC(=O)Nc1cccc(Nc2nc(Nc3ccc(N4CCN(S(=O)(=O)C5CC5)CC4)nc3OC)ncc2C(F)(F)F)c1` [ES-134], for which the IC50 worked out at 1.72 µM in assay [1]; 3.36 µM in assay [2]; 2.95 µM in assay [5]; 0.0691 µM in assay [3]; 1.64 µM in assay [6]; 0.399 µM in assay [4].
As to `C=CC(=O)Nc1cccc(Nc2nc(Nc3ccc(N4CCN(C(=O)C(F)(F)F)CC4)nc3OC)ncc2C(F)(F)F)c1` [ES-135], the half-maximal inhibitory concentration (IC50) was 4.43 µM in assay [1]; 1.5 µM in assay [2]; 8.87 µM in assay [5]; 0.11 µM in assay [3]; 3.25 µM in assay [6]; 0.329 µM in assay [4].
Consider `C=CC(=O)Nc1cccc(Nc2nc(Nc3ccc(N4CCN(C(=O)OCC)CC4)nc3OC)ncc2C(F)(F)F)c1` [ES-136], for which the half-maximal inhibitory concentration (IC50) worked out at 0.768 µM in assay [1]; 1.04 µM in assay [2]; 3.59 µM in assay [5]; 0.175 µM in assay [3]; 1.59 µM in assay [6]; 2.05 µM in assay [4].
`C=CC(=O)Nc1cccc(Nc2nc(Nc3ccc(N4CCN(C(=O)CC)CC4)nc3OC)ncc2C(F)(F)F)c1` [ES-137]: the IC50 in assay [1] came out at 2.27 µM; in assay [2], 3.58 µM; in assay [5], 4.12 µM; in assay [3], 0.0211 µM; in assay [6], 2.29 µM; in assay [4], 2.69 µM.
For `C=CC(=O)Nc1cccc(Nc2nc(Nc3ccc(N4CCN(C(=O)CC(C)(C)C)CC4)nc3OC)ncc2C(F)(F)F)c1` [ES-138], the concentration for half-maximal inhibition (IC50) was found to be 2.91 µM in assay [1]; 3.79 µM in assay [2]; 4.08 µM in assay [5]; 0.254 µM in assay [3]; 5.89 µM in assay [6]; 3.07 µM in assay [4].
In the case of `C=CC(=O)Nc1cccc(Nc2nc(Nc3ccc(N4CCN(C(=O)C(C)(C)C)CC4)nc3OC)ncc2C(F)(F)F)c1` [ES-139], the IC50 in assay [1] is 4.54 µM; in assay [2] it was 9.47 µM; in assay [5] it was 3.6 µM; in assay [3], 1.65 µM; in assay [6], 2.71 µM; in assay [4], 3.86 µM.
Take `C=CC(=O)Nc1cccc(Nc2nc(Nc3ccc(N4CCN(C(=O)COC(C)=O)CC4)nc3OC)ncc2C(F)(F)F)c1` [ES-140]: the IC50 in assay [1] was 2.08 µM; in assay [2] it was 6.46 µM; in assay [5] it was 3.16 µM; in assay [3] it was 0.27 µM; in assay [6], 2.28 µM; in assay [4], 5.87 µM.
With `C=CC(=O)Nc1cccc(Nc2nc(Nc3ccc(N4CCN(C(=O)C(C)C)CC4)nc3OC)ncc2C(F)(F)F)c1` [ES-141], the half-maximal inhibitory concentration (IC50) was found to be 0.72 µM in assay [1]; 4.5 µM in assay [2]; 4.25 µM in assay [5]; 0.0552 µM in assay [3]; 2.34 µM in assay [6]; 4.05 µM in assay [4].
Consider `C=CC(=O)Nc1cccc(Nc2nc(Nc3ccc(N4CCN(S(C)(=O)=O)CC4)nc3OC)ncc2C(F)(F)F)c1` [ES-142], for which the half-inhibitory concentration (IC50) in assay [1] came out at 1.22 µM; in assay [2] it was 4.4 µM; in assay [5], 2.96 µM; in assay [3], 0.08 µM; in assay [6], 0.826 µM; in assay [4] it was 1.01 µM.
Turning to `C=CC(=O)Nc1cccc(Nc2nc(Nc3ccc(N4CCN(S(=O)(=O)CC)CC4)nc3OC)ncc2C(F)(F)F)c1` [ES-143], the IC50 is over 100 µM in assay [1]; 2.02 µM in assay [2]; 2.15 µM in assay [5]; 0.48 µM in assay [3]; 1.07 µM in assay [6]; 0.401 µM in assay [4].
Consider `C=CC(=O)Nc1cccc(Nc2nc(Nc3ccc(N4CCN(S(=O)(=O)CCC)CC4)nc3OC)ncc2C(F)(F)F)c1` [ES-144], for which the half-inhibitory concentration (IC50) is 2.18 µM in assay [1]; 1.51 µM in assay [2]; 1.46 µM in assay [5]; 0.133 µM in assay [3]; 0.399 µM in assay [6]; 0.101 µM in assay [4].
In the case of `C=CC(=O)Nc1cccc(Nc2nc(Nc3ccc(N4CCN(S(=O)(=O)C(C)C)CC4)nc3OC)ncc2C(F)(F)F)c1` [ES-145], the IC50 came to 13.5 µM in assay [1]; 77.9 µM in assay [2]; 37.6 µM in assay [5]; 0.542 µM in assay [3]; 18 µM in assay [6]; 33.3 µM in assay [4].
Consider `C=CC(=O)Nc1cccc(Nc2nc(Nc3ccc(NC4CCN(C)C4)nc3OC)ncc2C(F)(F)F)c1` (stereo not shown) [ES-146], for which the 50% inhibitory concentration (IC50) in assay [1] was determined as 3.46 µM; in assay [2], 12.2 µM; in assay [5], 8.71 µM; in assay [3], 0.046 µM; in assay [6], 3 µM; in assay [4], 13 µM.
Consider `C=CC(=O)Nc1cccc(Nc2nc(Nc3ccc(N(C)C4CCN(C(C)=O)C4)nc3OC)ncc2C(F)(F)F)c1` (stereo not shown) [ES-147], for which the IC50 amounted to 2.21 µM in assay [1]; 4.2 µM in assay [2]; 4.29 µM in assay [5]; 0.464 µM in assay [3]; 1.74 µM in assay [6]; 4.28 µM in assay [4].
For the molecule `C=CC(=O)Nc1cccc(Nc2nc(Nc3ccc(N(C)C4CCN(CCF)C4)nc3OC)ncc2C(F)(F)F)c1` (stereo not shown) [ES-148], the IC50 in assay [1] was found to be 2.5 µM; in assay [2], 5.87 µM; in assay [5], 5 µM; in assay [3], 0.032 µM; in assay [6], 1.56 µM; in assay [4], 4.53 µM.
As for `C=CC(=O)Nc1cccc(Nc2nc(Nc3ccc(N(C)C4CCN(C(=O)C5COC5)C4)nc3OC)ncc2C(F)(F)F)c1` (stereo not shown) [ES-149], the half-inhibitory concentration (IC50) in assay [1] worked out at 3.92 µM; in assay [2] it was 6.71 µM; in assay [5], 5.07 µM; in assay [3], 0.0491 µM; in assay [6], 3.1 µM; in assay [4], 5.23 µM.
